Assay results from patent US11236086B2, “Substituted pyrrolopyridines as inhibitors of activin receptor-like kinase” (BLUEPRINT MEDICINES CORPORATION, priority 2017, dated 2022).

Experiments:
human ALK2 R206H = target: T1, human ALK2 R206H (Homo sapiens, UniProt Q04771, R206H); experiment: Cell-based ALK2-R206H cell activity assay (Smad1-Ser463/Ser465 phosphorylation by AlphaLISA in HEK293-ALK2-R206H cells); conditions: phospho-Smad1 AlphaLISA, read-out: Cell Line (Cell Assay, IC50 class)
T1 construct: expressed in transfected cells; host or cells: HEK293 (ATCC CRL1573), lentivirus transduction, blasticidin selection
T1 sequence (Q04771 21-509 R206H): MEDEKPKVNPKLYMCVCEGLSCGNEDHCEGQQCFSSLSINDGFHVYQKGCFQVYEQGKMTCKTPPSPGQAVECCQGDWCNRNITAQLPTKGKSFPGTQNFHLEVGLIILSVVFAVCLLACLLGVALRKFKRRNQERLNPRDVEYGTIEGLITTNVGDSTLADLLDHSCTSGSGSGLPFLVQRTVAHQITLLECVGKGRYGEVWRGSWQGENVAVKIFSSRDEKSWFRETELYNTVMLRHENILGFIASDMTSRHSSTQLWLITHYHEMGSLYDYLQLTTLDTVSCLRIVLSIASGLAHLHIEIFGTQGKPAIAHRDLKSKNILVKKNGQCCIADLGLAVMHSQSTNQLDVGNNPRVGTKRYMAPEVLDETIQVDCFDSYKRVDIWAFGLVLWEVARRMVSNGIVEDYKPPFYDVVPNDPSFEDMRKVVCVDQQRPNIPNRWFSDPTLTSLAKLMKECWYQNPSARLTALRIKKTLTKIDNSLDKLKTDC
Outline: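 IC50 comes from a 10-point curve, scaled between DMSO and 1 μM LDN193189 controls, of lysate phospho-Smad1 (Ser463/465) measured by AlphaLISA. Compounds (top 10 μM or 1 μM, 3-fold steps, duplicates) were given 2-3 h to serum-starved HEK293 cells that stably express FLAG-tagged human ALK2 R206H.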

[1] = target: T2, ALK2R206H (mutant ALK2, N-terminally tagged with GST) (Homo sapiens, UniProt Q04771, R206H); experiment: ALK binding assay (LANTHASCREEN TR-FRET competitive binding, displacement of Kinase Tracer 178); conditions: read-out: Binding Assay (IC50 class)
T2 construct: purchased Carna Bioscience or ThermoFisher 09-148 or PV6232
T2 sequence (Q04771 21-509 R206H): T1 sequence (Q04771 21-509 R206H)
Outline: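 Competitive displacement of Kinase Tracer 178 (50 nM) from N-terminally GST-tagged mutant ALK2 R206H (2-5 nM) by compound, detected by TR-FRET with Eu-anti-GST antibody (4-10 nM). 30 min room temperature incubation, 1% DMSO final; normalized signal fitted to 4-parameter log dose response for IC50.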

| IC50 (human ALK2 R206H) | IC50 [1] | SMILES |
| --- | --- | --- |
| ≤ 100 nM | ≤ 10 nM | Cc1nc(-c2[nH]c3nccc(N4CCN(C(=O)OC5CC5)CC4)c3c2C#N)cn1C [Compound 201] |
| ≤ 100 nM | ≤ 10 nM | Cn1cc(-c2cc3c(N4CCN(C(=O)O[C@H]5C[C@H](C#N)C5)CC4)ccnc3[nH]2)cn1 [Compound 202] |
| ≤ 100 nM | ≤ 10 nM | Cn1cc(-c2cc3c(N4CCN(C(=O)OC5COC5)CC4)ccnc3[nH]2)cc1C#N [Compound 203] |
| 100 to 500 nM | ≤ 10 nM | CCOC(=O)N1CCN(c2ccnc3[nH]c(-c4ncc(OC)cc4C#N)cc23)CC1 [Compound 204] |
| ≤ 100 nM | ≤ 10 nM | Cc1nc(-c2cc3c(N4CCN(C(=O)[C@H]5C[C@H](C#N)C5)CC4)ccnc3[nH]2)cs1 [Compound 205, (1r,3r)-3-(4-(2-(2-methylthiazol-4-yl)-1H-pyrrolo[2,3-b]pyridin-4-yl)piperazine-1-carbonyl)cyclobutanecarbonitrile] |
| ≤ 100 nM | ≤ 10 nM | Cn1cc(-c2[nH]c3nccc(N4CCN(C(=O)OC5COC5)CC4)c3c2C#N)cn1 [Compound 207] |
| ≤ 100 nM | ≤ 10 nM | Cn1cnc(-c2[nH]c3nccc(N4CCN(C(=O)OC5COC5)CC4)c3c2C#N)c1 [Compound 208] |
| 100 to 500 nM | ≤ 10 nM | Cn1ncc(-c2cc3c(N4CCN(C(=O)OC5COC5)CC4)ccnc3[nH]2)c1C#N [Compound 210] |
| ≤ 100 nM | ≤ 10 nM | Cc1nc(-c2cc3c(N4CCN(C(=O)OCC(F)F)CC4)ccnc3[nH]2)cs1 [Compound 212] |
| 100 to 500 nM | ≤ 10 nM | CCOC(=O)N1CCN(c2ccnc3[nH]c(-c4cnn(C(C)(C)C#N)c4)cc23)CC1 [Compound 213] |
| 100 to 500 nM | ≤ 10 nM | CCOC(=O)N1CCN(c2ccnc3[nH]c(-c4cnn(CC(C)C#N)c4)cc23)CC1 (centres unmarked) [Compound 214] |
| 100 to 500 nM | ≤ 10 nM | Cn1ncc(-c2[nH]c3nccc(N4CCN(C(=O)OC5COC5)CC4)c3c2C#N)n1 [Compound 215] |
| ≤ 100 nM | ≤ 10 nM | O=C(OC1COC1)N1CCN(c2ccnc3[nH]c(-c4cn5c(n4)CCC5)cc23)CC1 [Compound 218] |
| ≤ 100 nM | ≤ 10 nM | O=C(OC1COC1)N1CCN(c2ccnc3[nH]c(-c4cnn(C5CC5)c4)cc23)CC1 [Compound 219] |
| > 500 nM | 10 to 50 nM | O=C(OC1COC1)N1CCN(c2ccnc3[nH]c(-c4cn[nH]c4C4CC4)cc23)CC1 [Compound 220] |
| 100 to 500 nM | ≤ 10 nM | CCOC(=O)N1CCN(c2ccnc3[nH]c(-c4ccc(OC(C)C)cc4)cc23)CC1 [Compound 221] |
| > 500 nM | ≤ 10 nM | Cn1cc(-c2cc3c(N4CCN(C(=O)[C@H]5CC[C@H](O)CC5)CC4)ccnc3[nH]2)cn1 [Compound 224] |
| 100 to 500 nM | ≤ 10 nM | C[S+]([O-])c1ccc(-c2cc3c(N4CCN(C(=O)C5CC5)CC4)ccnc3[nH]2)cc1 (centres unmarked) [Compound 225] |
| 100 to 500 nM | ≤ 10 nM | N#Cc1cc(-c2cc3c(N4CCN(C(=O)OC5COC5)CC4)ccnc3[nH]2)cs1 [Compound 227] |
| ≤ 100 nM | ≤ 10 nM | Cn1cc(-c2[nH]c3nccc(N4CCN(C(=O)[C@H]5C[C@@H]5C#N)CC4)c3c2Cl)cn1 [Compound 228] |
| ≤ 100 nM | ≤ 10 nM | CC(C)n1cnc(-c2cc3c(N4CCN(C(=O)OC5COC5)CC4)ccnc3[nH]2)c1 [Compound 231] |
| ≤ 100 nM | ≤ 10 nM | CO[C@H]1C[C@H](OC(=O)N2CCN(c3ccnc4[nH]c(-c5cnn(C)c5)cc34)CC2)C1 [Compound 232] |
| 100 to 500 nM | ≤ 10 nM | COC1CC(OC(=O)N2CCN(c3ccnc4[nH]c(-c5cnn(C)c5)cc34)CC2)C1 (centres unmarked) [Compound 233] |

| IC50 (human ALK2 R206H) | IC50 [1] | SMILES |
| --- | --- | --- |
| 100 to 500 nM | ≤ 10 nM | Cn1cc(-c2cc3c(N4CCN(C(=O)OC5CCOCC5)CC4)ccnc3[nH]2)cn1 [Compound 234] |
| ≤ 100 nM | ≤ 10 nM | N#CC1(c2ccc(-c3cc4c(N5CCN(C(=O)C6CC6)CC5)ccnc4[nH]3)cc2)CC1 [Compound 241] |
| ≤ 100 nM | ≤ 10 nM | Cc1nc(-c2cc3c(N4CCN(C(=O)OC5CCC5)CC4)ccnc3[nH]2)sc1C [Compound 242] |
| ≤ 100 nM | ≤ 10 nM | Cc1nc(-c2cc3c(N4CCN(C(=O)O[C@H]5C[C@@H](F)C5)CC4)ccnc3[nH]2)cn1C [Compound 243] |
| ≤ 100 nM | ≤ 10 nM | Cc1nc(-c2cc3c(N4CCN(C(=O)O[C@H]5C[C@H](F)C5)CC4)ccnc3[nH]2)cn1C [Compound 244] |
| ≤ 100 nM | ≤ 10 nM | Cc1c(-c2cnn(C)c2)[nH]c2nccc(N3CCN(C(=O)O[C@H]4C[C@H](F)C4)CC3)c12 [Compound 245] |
| ≤ 100 nM | ≤ 10 nM | CCc1nc(-c2cc3c(N4CCN(C(=O)OC5COC5)CC4)ccnc3[nH]2)cs1 [Compound 248] |
| ≤ 100 nM | ≤ 10 nM | CCc1cnc(-c2cc3c(N4CCN(C(=O)OC5COC5)CC4)ccnc3[nH]2)s1 [Compound 249] |
| ≤ 100 nM | ≤ 10 nM | Cc1nc(-c2cc3c(N4CCN(C(=O)OC5COC5)CC4)ccnc3[nH]2)sc1C [Compound 250] |
| 100 to 500 nM | ≤ 10 nM | CCc1csc(-c2cc3c(N4CCN(C(=O)OC5COC5)CC4)ccnc3[nH]2)n1 [Compound 251] |
| ≤ 100 nM | ≤ 10 nM | CC(C)(C#N)c1ccc(-c2cc3c(N4CCN(C(=O)C5CC5)CC4)ccnc3[nH]2)cc1 [Compound 252] |
| 100 to 500 nM | ≤ 10 nM | Cn1cc(-c2cc3c(N4CCN(C(=O)O[C@H]5COC[C@@H]5F)CC4)ccnc3[nH]2)cn1 [Compound 254] |
| ≤ 100 nM | ≤ 10 nM | Cn1cc(-c2[nH]c3nccc(N4CCN(C(=O)OC5CCC5)CC4)c3c2Cl)cn1 [Compound 255] |
| ≤ 100 nM | ≤ 10 nM | Cn1cc(-c2[nH]c3nccc(N4CCN(C(=O)OCC(F)F)CC4)c3c2C#N)cn1 [Compound 256] |
| ≤ 100 nM | ≤ 10 nM | Cn1cnc(-c2[nH]c3nccc(N4CCN(C(=O)OCC(F)F)CC4)c3c2C#N)c1 [Compound 257] |
| ≤ 100 nM | ≤ 10 nM | CCOC(=O)N1CCN(c2ccnc3[nH]c(-c4cnn(C(F)F)c4)c(C#N)c23)CC1 [Compound 258] |
| 100 to 500 nM | ≤ 10 nM | COc1nc(-c2cc3c(N4CCN(C(=O)OC5COC5)CC4)ccnc3[nH]2)cs1 [Compound 259] |
| ≤ 100 nM | ≤ 10 nM | Cc1nc(-c2cc3c(N4CCN(C(=O)O[C@H]5C[C@H](F)C5)CC4)ccnc3[nH]2)cs1 [Compound 260] |
| ≤ 100 nM | ≤ 10 nM | Cn1cc(-c2cc3c(N4CCN(C(=O)OC5CCC5(F)F)CC4)ccnc3[nH]2)cn1 (centres unmarked) [Compound 262] |
| ≤ 100 nM | ≤ 10 nM | Cn1cc(-c2cc3c(N4CCN(C(=O)O[C@@H]5CCC5(F)F)CC4)ccnc3[nH]2)cn1 [Compound 263] |
| ≤ 100 nM | ≤ 10 nM | Cn1cnc(-c2cc3c(N4CCN(C(=O)O[C@@H]5CCC5(F)F)CC4)ccnc3[nH]2)c1 [Compound 264] |
| ≤ 100 nM | ≤ 10 nM | Cn1cnc(-c2cc3c(N4CCN(C(=O)O[C@H]5CCC5(F)F)CC4)ccnc3[nH]2)c1 [Compound 265] |
| ≤ 100 nM | ≤ 10 nM | Cn1cc(-c2cc3c(N4CCN(C(=O)OC5CC(F)(F)C5)CC4)ccnc3[nH]2)cn1 [Compound 266] |
